In PMC8765781, “A platform of assays for the discovery of anti-Zika small-molecules with activity in a 3D-bioprinted outer-blood-retina model” (PLoS ONE, 2022):
Read-outs that look alike come from different tables or passages of the source.

Tests used:
[1] = test system: ZIKV-RLuc (Cambodian strain FSS13025); assay: microbe, parasite or virus in culture; format: cell-based, Zika virus; conditions: for AC50: Zika virus, Vero
[2] = read-out: Log AC50 (M) (converted)

Structure (SMILES) | CC-v2 (curve class classification v2 of the dose response curve) [1] | Efficacy (difference between neutral response and maximum compound response) [1] | Max Resp (difference between neutral response and compound response for highest compound concentration) [1] | AC50 [1] [M] | AC50 [1, 2] [M] | AC50 (Vero cells) [µM] | Log AC50 (M) (Vero cells)
O=C(N[C@@H](c1ccccc1)[C@@H]1CCCCN1)c1cccc(C(F)(F)F)c1Cl [NCGC00247954-02] | -2.1 | -87.335 | -99.352 | 4.27e-05 | 4.27e-05 | 42.7 | -4.3699
C1=C/COCc2cc(ccc2OCCN2CCCC2)Nc2nccc(n2)-c2cccc(c2)OCC/1 [NCGC00249346-02] | -1.1 | -91.692 | -99.088 | 1.17e-06 | 1.17e-06 | 1.17 | -5.9327
CC(C)C[C@H](NC(=O)[C@H](CCc1ccccc1)NC(=O)CN1CCOCC1)C(=O)N[C@@H](Cc1ccccc1)C(=O)N[C@@H](CC(C)C)C(=O)[C@@]1(C)CO1 [NCGC00249613-01] | -1.1 | -103.056 | -99.72 | 2.33e-06 | 2.33e-06 | 2.33 | -5.6327
CCN1CCN(CC(=O)Nc2ccc(-c3cccc4c(=O)cc(N5CCOCC5)oc34)c3sc4ccccc4c23)CC1 [NCGC00250387-03] | -2.4 | -68.382 | -59.211 | 2.33e-05 | 2.33e-05 | 23.3 | -4.6327
CC(C)(C)OC(=O)Nc1ccc(-c2cc(C(=O)NCCCCCCC(=O)NO)no2)cc1 [NCGC00250390-04] | -2.2 | -83.763 | -67.554 | 2.09e-06 | 2.09e-06 | 2.09 | -5.6796
CC[C@@H]1C(=O)N(C)c2cnc(Nc3ccc(C(=O)NC4CCN(C)CC4)cc3OC)nc2N1C1CCCC1 [NCGC00253438-01] | -1.1 | -120.006 | -99.011 | 2.33e-06 | 2.33e-06 | 2.33 | -5.6327
NC(=O)C1(N2CCCCC2)CCN(CCCN2c3ccccc3CCc3ccc(Cl)cc32)CC1 [NCGC00253595-01] | -3 | -112.083 | -100.465 | 2.61e-05 | 2.61e-05 | – | -4.5827
C/C=C(/C)C(=O)O[C@H]1C(C)=C2[C@H]([C@@H]1OC(=O)CCCCCCC)[C@@](C)(OC(C)=O)C[C@H](OC(=O)CCC)[C@@]1(O)[C@H]2OC(=O)[C@@]1(C)O [NCGC00261947-01] | -1.2 | -69.727 | -98.941 | 3.29e-06 | 3.29e-06 | 3.29 | -5.4827
Cc1ccc(C(N)=O)cc1Nc1nccc(-c2cn(C(C)C)c3cnccc23)n1 [NCGC00263020-01] | -1.1 | -104.089 | -98.725 | 7.37e-06 | 7.37e-06 | 7.37 | -5.1327
Cc1nc2cnc3ccc(C#Cc4cccnc4)cc3c2n1-c1ccc(C(C)(C)C#N)cc1 [NCGC00263088-01] | -1.1 | -103.241 | -92.032 | 5.85e-06 | 5.85e-06 | 5.85 | -5.2327
COc1cc(OC2CCN(C)CC2)ccc1Nc1ncc2c(n1)n(C1CCCC1)c(=O)n2C [NCGC00263090-01] | -1.2 | -50.634 | -54.42 | 6.76e-06 | 6.76e-06 | 6.76 | -5.1699
CC(=O)N(C)C1(c2ccccc2)CCN(CCC[C@]2(c3ccc(Cl)c(Cl)c3)CCCN(C(=O)c3ccccc3)C2)CC1 [NCGC00263110-01] | -2.1 | -124.29 | -100.789 | 1.85e-05 | 1.85e-05 | 18.5 | -4.7327
